In patent US20080275036A1, “Prevention and treatment of cardiac conditions” (APT Pharmaceuticals, Inc., priority 2007, published 2008):
“Also recorded” adds a separate entry of the source. Like-named read-outs stand apart in the source and are kept apart here.

Legend:
[1] = cited from earlier work; for solubility in polar solvents: ethanol and methanol
[2] = test system: isolated, perfused guinea pig heart; test: Perfusion of doxorubicin and dexrazoxane in the isolated, perfused guinea pig heart (Langendorff); settings: for % change in MAP duration / % change in QTc / Cardiac rate / Cor flow / LV dp/dt max / LV dpdt (relax) / LV peak systolic pressure / LVEDP / MAP Duration / QTcF: 30 min of perfusion
Method: Perfusion studies of doxorubicin and dexrazoxane in the isolated, perfused guinea pig heart were performed similarly as above. The following parameters were recorded continuously: electrocardiogram (ECG), monophasic action potentials (MAP), perfusion pressure, left ventricular pressure and coronary flow. These effects could be related to some modifications of cardiac electrophysiology (changes in PR, QRS, QT and RR intervals, proarrhythmic effects, Torsade de pointes . . . ), of coronary resistance and/or of cardiac contraction or inotropism (contractility or relaxation troubles).
Stock solutions (10^−2M, 3×10^−2M) in H20 for each drug were prepared each day of the experiment and a dilution (1/1000) done in the perfusion buffer in order to get the appropriate concentrations:
The buffer used in the experiment was KREBS-[…] buffer (Sigma K-3753) to which was added sodium bicarbonate (Sigma S5761) 25 mM and calcium chloride dihydrate (Sigma C8106) 1.8 mM.
The ECG (2 electrodes: on the apex and closed to the right auricular) and the MAP (electrode on the epicardium) were recorded. PR, QRS, QT and RR were measured and QTc (Fridericia; QTc=QT/(RR) ⅓ in ms) was calculated.
The coronary flow (mL/min) is indicated by the perfusion pump. In this model, the perfusion pressure was constant.
Diastolic pressure (mmHg), systolic pressure (mmHg), differential pressure (syst-diast) (mmHg), mean pressure (mmHg), dP/dt min (mmHg/sec) dP/dt max (mmHg/sec) and cardiac frequency (beat per minute: BPM) were measured. A modification of the inotropism can be a problem of cardiac contractility (if modified systolic pressure and dP/dt max) or relaxation (if modified diastolic pressure and dP/dt min). From the left ventricular pressure, the following were calculated: heart rate (frequency of cardiac contractions), dP/dt min and dP/dt max. An acquisition unit MP150WSW with Acknowledge software (Biopac, USA) was used to continuously record all the signals (perfusion pressure, coronary flow, left ventricular pressure, ECG and MAP) through a PC computer. In each group (n=4 hearts), increasing concentrations of compound were infused according to the following design:
For each group, the data are expressed as mean ±S.E.M, % of variation compared to D0 and delta variation from D0. PR, QRS, QT and RR are measured on the same period but on a signal which results from 5 cycles.
On all the curves, the mean value is measured on 30 seconds in the last minute of perfusion for the following parameters: […]

[3] = test system: isolated guinea pig myocytes; test: Action potential properties in isolated guinea pig myocytes; type: cell-based; settings: for action potential duration (effect in words): over the tested concentrations
[4] = test system: isolated guinea pig myocytes; test: Calcium transients in isolated guinea pig myocytes; type: cell-based; settings: for calcium transients (effect in words): over the tested concentrations
Method: Calcium transients were measured during activation in isolated guinea pig myocytes. […] This increase in calcium transient without an action potential increase indicates an effect on calcium cycling proteins.

[5] = test system: single ventricular myocytes; test: Unloaded cell shortening (UCS) of single ventricular myocytes; settings: 10 μM
[6] = test system: single guinea-pig ventricular myocytes; test: Action potential recording in single guinea-pig ventricular myocytes; type: cell-based; settings: for action potential duration (effect in words): superfused 10 to 30 minutes
Method: Myocytes were isolated after perfusion of the heart with a physiological salt solution containing reduced calcium and 0.8 mg/mL of collagenase Type 1 (Worthington Biochemicals).
Action potentials were recorded from single guinea-pig ventricular myocytes using the standard control conditions and criteria as adopted by CCTT Ltd. (see http://www.cctt.ltd.uk/ap1.htm). Briefly, action potentials were recorded using conventional glass microelectrodes filled with 1 M KMeSO4 and 10 mM KCl. Electrode resistances were in the range of 40 to 60 MΩ. An Axoclamp 2B (Axon Instruments Inc) amplifier was used for electrical recording. Action potentials were continuously stimulated by application of a brief (1-2 ms) current stimuli applied via the intracellular microelectrode in ‘bridge’ mode. Following penetration of the cell with the microelectrode, a stabilisation period of at least 5 min was allowed before recordings were started. The frequency of stimulation was 1 Hz. Recorded signals were digitised at a sampling frequency of 5 kHz and stored for subsequent off line analysis. Action potential signals were continuously monitored online using an oscilloscope (Tektronix digital storage oscilloscope) to check for development of effects of dexrazoxane. All recordings are made at 36±1° C.
The stability of several parameters of the action potential profile (resting potential, action potential amplitude and action potential duration) was ensured before recordings were commenced. Resting potential was measured over a 5-10 ms period before the stimulus artefact and values for the resting potential falling between −75 to −85 mV were taken as normal. Action potential amplitude was measured following the stimulus artefact and values falling between 110 to 130 mV were taken as normal.
All data are presented as mean ±SEM. The effect of dexrazoxane on action potential characteristics was assessed using Student's t-test (MicroSoft Excel) and P<0.05 was taken to indicate statistical significance.
Action potential duration was measured from the peak amplitude of the action potential to 90% repolarisation level (APD90), and values for APD90 falling between 150 to 300 ms were taken as normal. Parameters measured in this study were action potential duration at 40, and 90% repolarisation levels (APD40 and APD90) using Clampfit 9.0.
For each cell, APD40 and APD90 values were calculated in the absence (control) and presence of a drug. As an index of ‘Triangulation’ APD90-APD40, (APD90-40 ms) in the absence (APD90-40 control) and presence of dexrazoxane (APD90-40 drug) were calculated. This was normalised to the starting (control) APD90 to express APD90-40 duration as a % of control APD90. Calculations were made for each cell individually; the values for each drug concentration were then averaged.

[7] = cited from earlier work
[8] = test system: Langendorff heart preparations; test: Heart rate variability after total flow occlusion in stable Langendorff heart preparations; settings: 10 μM, 30 min
[9] = doxorubicin perfusion, 30 minute time point

SMILES: CC(CN1CC(=O)NC(=O)C1)N1CC(=O)NC(=O)C1 (racemic) [razoxane]
- solubility in 0.1 N HCl ([1]; 0.1 N HCl): sparingly soluble
- solubility in non-polar, organic solvents [1]: practically insoluble
- solubility in polar solvents [1]: slightly soluble

SMILES: COc1cccc2c1C(=O)c1c(O)c3c(c(O)c1C2=O)C[C@@](O)(C(=O)CO)C[C@@H]3O[C@H]1C[C@H](N)[C@H](O)[C@H](C)O1 [Doxorubicin]
- % change in MAP duration ([2]; DOX 3 * 10^−5 mM): 13.3%
- % change in QTc ([2]; DOX 3 * 10^−5 mM): 11.9 % change
- Cardiac rate ([2]; DOX 3 * 10^−5 mM): 184 Beats/min
- Cor flow ([2]; DOX 3 * 10^−5 mM): 14.4 mL/min
- LV dp/dt max ([2]; DOX 3 * 10^−5 mM): 887 mmHg sec^−1
- LV dpdt (relax) ([2]; DOX 3 * 10^−5 mM): −922 mmHg sec^−1
- LV peak systolic pressure ([2]; DOX 3 * 10^−5 mM): 93 mmHg
- LVEDP ([2]; DOX 3 * 10^−5 mM): 14 mmHg
- MAP Duration ([2]; DOX 3 * 10^−5 mM): 162 ms
- QTcF ([2]; DOX 3 * 10^−5 mM): 272 ms
- % change in MAP duration ([2]; DOX 10^−5 mM): 2.2%
- % change in QTc ([2]; DOX 10^−5 mM): 1.6 % change
- Cardiac rate ([2]; DOX 10^−5 mM): 217 Beats/min
- Cor flow ([2]; DOX 10^−5 mM): 13.4 mL/min
- LV dp/dt max ([2]; DOX 10^−5 mM): 1277 mmHg sec^−1
- LV dpdt (relax) ([2]; DOX 10^−5 mM): −1173 mmHg sec^−1
- LV peak systolic pressure ([2]; DOX 10^−5 mM): 97 mmHg
- LVEDP ([2]; DOX 10^−5 mM): 7 mmHg
- MAP Duration ([2]; DOX 10^−5 mM): 142 ms
- QTcF ([2]; DOX 10^−5 mM): 247 ms
- LVEDP (effect in words) [2, 9]: marked increase
- QTcF (effect in words) [2, 9]: increased
- APD50 ([3]; 30 μM): 553 ± 29 ms
- APD90 ([3]; 30 μM): 626 ± 28 ms
- Action potentials, Peak amplitude ([3]; 30 μM): 120 ± 3 mV
- Action potentials, Resting potential ([3]; 30 μM): −70 ± 3 mV
- APD50 ([3]; 100 μM): 646 ± 26 ms
- Action potentials, Peak amplitude ([3]; 100 μM): 119 ± 2 mV
- Action potentials, Resting potential ([3]; 100 μM): −68 ± 3 mV
- APD50 ([3]; 300 μM): 536 ± 48 ms
- APD90 ([3]; 300 μM): 611 ± 48 ms
- Action potentials, Peak amplitude ([3]; 300 μM): 122 ± 4 mV
- Action potentials, Resting potential ([3]; 300 μM): −69 ± 2 mV
- action potential duration (effect in words) [3]: profound prolongation
- Ca^2+ transients, Peak amplitude (ΔF/F0) ([4]; 30 μM): 3.0 ± 0.7 ΔF/F0
- Ca^2+ transients, Peak amplitude (ΔF/F0) ([4]; 100 μM): 3.1 ± 0.5 ΔF/F0
- Ca^2+ transients, Peak amplitude (ΔF/F0) ([4]; 300 μM): 1.6 ± 0.3 ΔF/F0
- calcium transients (effect in words) [4]: dose related decrease

SMILES: C[C@@H](CN1CC(=O)NC(=O)C1)N1CC(=O)NC(=O)C1 [Dexrazoxane, (S)-4,4′-(1-methyl-1,2-ethanediyl)bis-2,6-piperazinedione]
- % change in MAP duration ([2]; DOX 3 * 10^−5 mM): 0.0%
- % change in QTc ([2]; DOX 3 * 10^−5 mM): −1.7 % change
- Cardiac rate ([2]; DOX 3 * 10^−5 mM): 200 Beats/min
- Cor flow ([2]; DOX 3 * 10^−5 mM): 14.6 mL/min
- LV dp/dt max ([2]; DOX 3 * 10^−5 mM): 1041 mmHg sec^−1
- LV dpdt (relax) ([2]; DOX 3 * 10^−5 mM): −1022 mmHg sec^−1
- LV peak systolic pressure ([2]; DOX 3 * 10^−5 mM): 82 mmHg
- LVEDP ([2]; DOX 3 * 10^−5 mM): 5 mmHg
- MAP Duration ([2]; DOX 3 * 10^−5 mM): 143 ms
- QTcF ([2]; DOX 3 * 10^−5 mM): 237 ms
- % change in MAP duration ([2]; DOX 10^−5 mM): 0%
- % change in QTc ([2]; DOX 10^−5 mM): −2.1 % change
- Cardiac rate ([2]; DOX 10^−5 mM): 203 Beats/min
- Cor flow ([2]; DOX 10^−5 mM): 14 mL/min
- LV dp/dt max ([2]; DOX 10^−5 mM): 1238 mmHg sec^−1
- LV dpdt (relax) ([2]; DOX 10^−5 mM): −1139 mmHg sec^−1
- LV peak systolic pressure ([2]; DOX 10^−5 mM): 94 mmHg
- LVEDP ([2]; DOX 10^−5 mM): 5 mmHg
- MAP Duration ([2]; DOX 10^−5 mM): 139 ms
- QTcF ([2]; DOX 10^−5 mM): 236 ms
- LVEDP (effect in words) ([2]; dexrazoxane added to the doxorubicin perfusion): did not contribute
- QTcF increase by doxorubicin (effect in words) ([2]; dexrazoxane added, both doxorubicin doses): reversed
- APD50 ([3]; 10 μM): 512 ± 47 ms
- APD90 ([3]; 10 μM): 573 ± 43 ms
- Action potentials, Peak amplitude ([3]; 10 μM): 119 ± 2 mV
- Action potentials, Resting potential ([3]; 10 μM): −69 ± 0 mV
- APD50 ([3]; 30 μM): 493 ± 36 ms
- APD90 ([3]; 30 μM): 564 ± 33 ms
- Action potentials, Peak amplitude ([3]; 30 μM): 121 ± 2 mV
- Action potentials, Resting potential ([3]; 30 μM): −68 ± 2 mV
- APD50 ([3]; 100 μM): 548 ± 45 ms
- APD90 ([3]; 100 μM): 619 ± 39 ms
- Action potentials, Peak amplitude ([3]; 100 μM): 124 ± 1 mV
- Action potentials, Resting potential ([3]; 100 μM): −66 ± 1 mV
- action potential duration (effect in words) [3]: without inducing a change
- amplitude of UCS / contraction (effect in words) ([5]; 27 minutes): did not significantly alter
- peak amplitude of UCS, absolute cell shortening ([5]; 27 minutes, n=3, control 9.4±3.4 μm, P=ns): 10.7±3.2 μm
- UCS as percentage of resting cell length ([5]; n=3, control 8.5±2.7% RCL, P=ns): 8.0±2.0 % RCL
- decrease in APD40 ([6]; 10 μM in superfusion solution, n=3, P<0.005): 18±4%
- APD90-40 duration (index of triangulation) ([6]; 10 μM superfusion): did not significantly alter
- action potential duration (APD90) ([6]; 10 μM, 27 minutes, control 212±9 ms): 168 ± 12 ms
- shortening of APD90 ([6]; 10 μM, perfusion 27 minutes, n=4, P<0.005): 18±3%
- action potential duration (effect in words) ([6]; 10 μM): shortened action potential duration
- action potential duration (effect in words) ([6]; 10 μM, listed as dexrazoxane): shortened action potential duration; also recorded: caused shortening of action potential duration
- APD40 ([6]; 10 μM, control 175±8 ms): 136 ± 15 ms
- Ca^2+ transients, Peak amplitude (ΔF/F0) ([4]; 10 μM): 5.2 ± 0.8 ΔF/F0
- Ca^2+ transients, Peak amplitude (ΔF/F0) ([4]; 30 μM): 5.8 ± 1.0 ΔF/F0
- Ca^2+ transients, Peak amplitude (ΔF/F0) ([4]; 100 μM): 5.1 ± 0.6 ΔF/F0
- calcium transients (effect in words) [4]: dose proportional increase
- stability of lyophilized drug without significant decomposition [7]: ~12 months
- solubility in 0.1 N HCl ([1]; 0.1 N HCl at 25° C., salt of hydrochloric acid): 35 mg/mL
- solubility in 0.1 N HCl ([1]; 0.1 N HCl): sparingly soluble
- solubility in water ([1]; 25° C.): about 10 mg/ml
- solubility in non-polar, organic solvents [1]: practically insoluble
- solubility in polar solvents [1]: slightly soluble
- coefficient of variation (heart rate variability) at reperfusion ([8]; control 2.9±0.2, n=3, P=ns): 3.3±1.1
- increase of coefficient of variation (heart rate variability) during reperfusion ([8]; reperfusion after 15 min total flow ischemia, n=3): 77%
